Measured values reported in patent US6514997B2, “Antipicornaviral compounds and compositions, their pharmaceutical uses, and materials for their synthesis” (Agouron Pharmaceuticals, Inc., priority 1999, dated 2003).

How the values were obtained:
[1] = test system: Echovirus type 11 (ECHO 11); assay: Anti-echoviral cell culture assay (XTT, EC50), ECHO 11; format: cell-based, echovirus 11 in MRC-5 cells; conditions: Enterovirus B
Protocol: Anti-Echoviral and Anti-Enteroviral Cell Culture Assays
Echovirus type 11 (ECHO 11) was purchased from ATCC (Rockville, Md.). Virus stocks were propagated and antiviral assays were performed in MRC-5 cells (ATCC). Cells were grown in minimal essential medium with 10% fetal bovine serum (Life Technologies, Gaithersburg, Md.). The ability of the compounds of this invention to protect cells against ECHO 11 infection was measured by the XTT dye reduction method (Weislow et al., J. Natl. Cancer Inst. (1989), vol. 81, 577-586). MRC-5 cells were infected with ECHO 11 at an m.o.i. of 0.003 or 0.004, respectively, or mock-infected with medium only. Infected or uninfected cells were added at 1×10^4 cells per well and incubated with appropriate concentrations of compound. Four days later, XTT/PMS was added to test plates, and the amount of formazan produced was quantified spectrophotometrically at 450/650 nm. […] The therapeutic index (TI) was calculated by dividing the CC50 by the EC50. Activity of the compounds against enterovirus type 70 (EV 70) may be measured by the same assay as described above in this section. Enterovirus type 70 (EV 70) may be obtained from the American Type Culture Collection ATCC (Rockville, Md.).

[2] = Cytotoxicity (CC50), cell line not stated; format: cell-based
coxsackievirus B2 (CVB2) = assay: Antiviral cell culture assay (EC50), coxsackievirus B2; format: cell-based; conditions: Enterovirus B
echovirus 9 (ECHO-9) = assay: Antiviral cell culture assay (EC50), echovirus 9; format: cell-based; conditions: Enterovirus B; ECHO9
coxsackievirus B5 (CVB5) = assay: Antiviral cell culture assay (EC50), coxsackievirus B5; format: cell-based; conditions: Enterovirus B

Compound | EC50 [1] [nM] | melting point | CC50 ([2]; CVB2) [µM] | CC50 ([2]; CVB5) [µM] | CC50 ([2]; ECHO9) [µM] | EC50 (coxsackievirus B2 (CVB2)) [nM] | EC50 (echovirus 9 (ECHO-9)) [nM] | EC50 (coxsackievirus B5 (CVB5)) [nM]
CCOC(=O)/C=C/[C@H](C[C@@H]1CCNC1=O)NC(=O)[C@H](CC)n1cccc(NC(=O)c2cc(C)on2)c1=O [Compound 26, trans-(2′S,3″″S,4S)-4-(2′-{3″-[(5′″-Methylisoxazole-3′″-carbonyl)amino]-2″-oxo-2″H-pyridin-1″-yl}butyrylamino)-5-(2″″-oxopyrrolidin-3″″-yl)pent-2-enoic Acid Ethyl Ester] | 36 |  |  |  |  |  |  | 
C#CC[C@@H](C(=O)N[C@H](/C=C/C(=O)OCC)C[C@@H]1CCNC1=O)n1cccc(NC(=O)c2cc(C)on2)c1=O [Compound 31, trans-(2′S,3″″S,4S)-4-(2′-{3″-[(5′″-Methyl-isoxazole-3′″-carbonyl)amino]-2″-oxo-2″H-pyridin-1″-yl}pent-4′-ynoyl-amino)-5-(2″″-oxopyrrolidin-3″″-yl)pent-2-enoic Acid Ethyl Ester] | 13 |  |  |  |  |  |  | 
CCOC(=O)/C=C/[C@H](C[C@@H]1CCNC1=O)NC(=O)[C@H](Cc1ccc(F)c(F)c1)n1cccc(NC(=O)c2cc(C)on2)c1=O [Compound 33, trans-(2′S,3′″″S,4S)-4-(3′-(3″,4″-Difluorophenyl)-2′-{3′″-[(5″″-methylisoxazole-3″″-carbonyl)amino]-2′″-oxo-2′″H-pyridin-1′″-yl}propionylamino)-5-(2′″″-oxopyrrolidin-3′″″-yl)pent-2-enoic Acid Ethyl Ester] | 16 |  |  |  |  |  |  | 
C#CC[C@@H](C(=O)N[C@H](/C=C/C(=O)OC(C)(C)C)C[C@@H]1CCNC1=O)n1cccc(NC(=O)c2cc(C)on2)c1=O [Compound 41, trans-(2′S,3′″″S,4S)-4-[2′-(3″-{[1′″-(5″″-Methylisoxazol-3″″-yl)methanoyl]amino}-2′″-oxo-2′″H-pyridin-1′″-yl)pent-4″-ynoylamino]-5-(2′″″-oxopyrrolidin-3′″″-yl)pent-2-enoic Acid tert-Butyl Ester] | 186 | 195 °C (dec.) |  |  |  |  |  | 
CC[C@@H](C(=O)N[C@H](/C=C/C(=O)OCc1ccccc1)C[C@@H]1CCNC1=O)n1cccc(NC(=O)c2cc(C)on2)c1=O [Compound 62, trans-(2′S,3′″″S,4S)-4-[2′-(3″-{[1′″-(5″″-Methylisoxazol-3″″-yl)methanoyl]amino}-2′″oxo-2′″H-pyridin-1′″-yl)butanoylamino]-5-(2′″″-oxopyrrolidin-3′″″-yl)pent-2-enoic Acid Benzyl Ester] |  |  | > 10 | > 10 | > 10 | 16 | 4 | 20
C#CC[C@@H](C(=O)N[C@H](/C=C/C(=O)OCc1ccccc1)C[C@@H]1CCNC1=O)n1cccc(NC(=O)c2cc(C)on2)c1=O [Compound 63, trans-(2′S,3′″″S,4S)-4-[2′-(3″-{[1′″-(5″″-Methylisoxazol-3″″-yl)methanoyl]amino}-2′″-oxo-2′″H-pyridin-1′″-yl)pent-4″-ynoylamino]-5-(2′″″-oxopyrrolidin-3′″″-yl)pent-2-enoic Acid Benzyl Ester] |  |  | > 10 | > 10 | > 10 | 12 | 2 | 10
